Data set [1] relates to SU-DHL-10 cell line (human B cell lymphoma). As to the kind of experiment: Cell cytotoxicity in SU-DHL-10 cell line (CellTiter-Glo). The format is cell-based. The following applies: 72 h treatment, CTG. As to the method:
Certain Example compounds of the invention and Comparator Compound 1 were tested in the SU-DHL-10 cell line (human B cell lymphoma). Compounds which show efficacy in this assay are expected to be useful as agents for treating or preventing hyperproliferative disorders such as cancer.
Cells were seeded in 96-well microplates and treated with compounds or cisplatin (as a positive control) at 9 increasing concentrations in technical triplicate. […] On day 1, 90 μL of various cell suspensions with the number of cells ranging from 5000-8000 cells/well were seeded into wells of a 96-well plate (Corning). The number of cells to be seeded was previously determined. • 2. All 96-wells plates with cells were placed in an incubator overnight at 37° C. with 5% CO2. • 3. On day 2, cells were observed under a microscope ensuring the cells treated with vehicle control were in good condition. • 4. A dilution series of the test compounds and cisplatin were prepared at 10× the final concentrations required. 10 μL/well of 10× compound solution was added to the corresponding plates. The final volume was 100 μL/well for all the plates. Final DMSO concentration was 0.1%. • 5. On day 5 (after 72 hours of incubation), 50 μL of CTG reagent was added to each well. • 6. Contents were mixed for 5 minutes on an orbital shaker to facilitate cell lysis. • 7. The plate was allowed to incubate at room temperature for 10 minutes to stabilize luminescent signals.
Luminescence was recorded using an EnVision Multi Label Reader. Data analysis was performed using GraphPad Prism 8.0.
To calculate IC50, a concentration-response curve was generated using a nonlinear regression model with a sigmoidal concentration response. The formula for calculating the % of viable cells was shown below, and the IC50s are automatically generated by GraphPad Prism 8.0.
(LumTest article=luminescence in test article treated well; LumNone treated=luminescence in vehicle treated well; LumMedium control=luminescence in a well containing only medium and no cells; LumNone treated-LumMedium control was set as 100%)
On the technique in general: Cellular ATP, detected with luciferase, serves as a proxy for viable cell number.

Data set [2] in a line: Caco-2 cell permeability assay. The data set is classed as in vitro ADME. The note with it: human, Caco-2, pH 7.4, basal to apical Papp, pH 7.4, 2.5 h. As to the method:
(§1) Certain Example compounds and Comparative Example 1 were tested for their apical to basal (AB) and basal to apical (BA) permeability in Caco-2 cells.
(§2) Cell Culture: Caco-2 cells were grown for 10 days in 96-well plates in HBSS buffer containing 10 mM HEPES. Both the apical and basal pH was buffered at pH 7.4. The apical/basal volumes were 75 μl and 250 μl respectively. The incubation time was 2.5 h at 37° C. (without shaking) under 5% CO2 & 95% relative humidity.
(§3) Cell Seeding: Cells were seeded at a density of 18750 cells/well (membrane area=0.0804 cm^2) in a 96 well plate.
(§4) AB Assay: 75 μl of cell suspension was added at a density 2.5×10^5 cells/ml to the apical wells. 40 ml media was added to the feeder tray. The plates were placed in the incubator (37° C., 5% CO2 and controlled humidity). The Caco-2 cells were grown for 10 days with a media change on every alternate day.
(§5) BA Assay: 25 μl of cell suspension was added at a density of 7.5×10^5 cells/ml to the bottom side (keeping the plate upside down) of apical wells. The plate (upside down position) was placed in the incubator (37° C., 5% CO2 and 95% Relative humidity) for 2 h. The plate was turned right side up. 75 μl media was added to the apical wells and 40 ml media to the feeder tray.
(§6) Permeablity Assay: The apical and basal wells were washed with buffer (pH 7.4) and 250 μl buffer was added to the wells of the basal plate. 75 μl of compound solution (2 μM, dissolved in water with 1% DMSO) was transferred to the apical wells (n=2). The apical plate was placed onto the basal plate. The lid was placed on to prevent evaporation. The assembly was incubated at 37° C. for 2.5 h (without shaking) under 5% CO2 and 95% relative humidity. After incubation the apical plate was separated from the basal plate. Aliquots were taken out from the acceptor and donor wells, diluted and quantified using LC-MS/MS along with initial donor samples.
(§7) Membrane Integrity Test: Solution in the apical wells was discarded by inverting the plate and soaking onto tissue paper. 250 μl buffer (pH 7.4) was added to each well of basal plate and 75 μl of Lucifer Yellow (LY; 0.1 mg/ml) in buffer (pH 7.4) to the wells of apical plate. The apical plate was placed onto the basal plate and the lid used to prevent evaporation. The assembly was incubated at 37° C. for 1 h (without shaking) under 5% CO2 and 95% relative humidity. The apical plate was separated from the basal plate. Fluorescence (Ex: 432 nm, Em: 530 nm) of aliquots (100 ul) was measured from basal wells. Fluorescence of 100 μl buffer (pH 7.4) and 100 μl LY(0.1 mg/ml) was also measured. Wells having more than 1% fluorescence intensity with respect to 0.1 mg/ml LY were considered non-integrated membrane. Such wells, if any, were not considered for permeability calculation.
(§8) Calculation: Drug was detected and quantified by LC-MS/MS. Data generated took the form of an apparent permeability (Papp) value. Papp=[Va/(AreaxTime)]×(LC-MS Area of Acceptor sample×Sample dilution factor/LC-MS Area of Initial Donor). Va=Volume of Acceptor Well (in ml)=0.25, Vd=Volume of Donor Well (in ml)=0.075, Area=Surface area of the membrane (cm2)=0.0804, Time=Time of incubation (sec)=9000 Results: The results of the assay are shown in Table 3 below.
A general note: Caco-2 cells form a polarised layer with tight junctions and transporters.

For data set [3], the system named is Caco-2 cells. As to the kind of experiment: Caco-2 cell permeability assay. The note with it: 2 μM, pH 7.4, 2.5 h; for Caco-2 A-B: apical to basal Papp; for Caco-2 B-A: basal to apical Papp. The data set is classed as in vitro ADME. As to the method:
as §1, §2, §3, §4, §5, §6, §7, §8

What is called IC50 is the concentration at which inhibition is half-maximal. A high value points to lower potency. In general, Papp B→A refers to the apparent permeability from the basolateral to the apical side of a cell layer. In the case of `Cc1c(CCOc2cc(F)ccc2-c2ccc3ncc(CN(C)C)n3c2)c(C(C)O)nn1C` (single isomer, unassigned) [Example 3, 1-(4-(2-(2-(3-((dimethylamino)methyl)imidazo[1,2-a]pyridin-6-yl)-5-fluorophenoxy)ethyl)-1,5-dimethyl-1H-pyrazol-3-yl)ethan-1-ol], the half-maximal inhibitory concentration (IC50) in data set [1] was found to be 9.4 nM. This molecule also had a Papp B→A at 2.5 h, 2 μM in data set [2] of 22.6 ×10⁻⁶ cm/s. In data set [3], the “Caco-2 A-B” value worked out at 1.2 ×10⁻⁶ cm/s.
Molecule `Cc1c(CCOc2cc(F)ccc2-c2ccc3ncc(CN(C)C)n3c2)c(C(C)O)nn1C` (single isomer, unassigned) [Example 4, 1-(4-(2-(2-(3-((dimethylamino)methyl)imidazo[1,2-a]pyridin-6-yl)-5-fluorophenoxy)ethyl)-1,5-dimethyl-1H-pyrazol-3-yl)ethan-1-ol] yielded a concentration for half-maximal inhibition (IC50) in data set [1] (Homo sapiens, SU-DHL10, 72 h) of 12 nM. For the same molecule, in data set [3], the “Caco-2 A-B” value turned out to be 1.3 ×10⁻⁶ cm/s and the “Caco-2 B-A” value was determined as 24.9 ×10⁻⁶ cm/s.
`CNCc1cnc2ccc(-c3ccc(F)cc3OCCc3c(C(O)C(C)(C)C)nn(C)c3C)cn12` (single isomer, unassigned) [Example 9, 1-(4-(2-(5-fluoro-2-(3-((methylamino)methyl)imidazo[1,2-a]pyridin-6-yl)phenoxy)ethyl)-1,5-dimethyl-1H-pyrazol-3-yl)-2,2-dimethylpropan-1-ol] had an IC50 in data set [1] of 0.6 nM. In addition, the Papp B→A at 2.5 h, 2 μM in data set [2] stood at 8.02 ×10⁻⁶ cm/s. The “Caco-2 A-B” value in data set [3] worked out at 0.26 ×10⁻⁶ cm/s.
On to `CNCc1cnc2ccc(-c3ccc(F)cc3OCCc3c(C(O)C(C)(C)C)nn(C)c3C)cn12` (single isomer, unassigned) [Example 10, 1-(4-(2-(5-fluoro-2-(3-((methylamino)methyl)imidazo[1,2-a]pyridin-6-yl)phenoxy)ethyl)-1,5-dimethyl-1H-pyrazol-3-yl)-2,2-dimethylpropan-1-ol], for which the IC50 in data set [1] was 2 nM. In data set [3], the “Caco-2 A-B” value was 0.305 ×10⁻⁶ cm/s and the “Caco-2 B-A” value is 8.89 ×10⁻⁶ cm/s.
With `CNCc1cnc2ccc(-c3ccc(F)c(F)c3OCCc3c(C(O)C(C)(C)C)nn(C)c3C)cn12` (single isomer, unassigned) [Example 13, 1-(4-(2-(2,3-difluoro-6-(3-((methylamino)methyl)imidazo[1,2-a]pyridin-6-yl)phenoxy)ethyl)-1,5-dimethyl-1H-pyrazol-3-yl)-2,2-dimethylpropan-1-ol], in data set [1], the IC50 was 0.7 nM.
Regarding `Cc1c(CCOc2c(-c3ccc4ncc(CN(C)C)n4c3)ccc(F)c2F)c(C(O)C(C)(C)C)nn1C` (single isomer, unassigned) [Example 15, 1-(4-(2-(6-(3-((dimethylamino)methyl)imidazo[1,2-a]pyridin-6-yl)-2,3-difluorophenoxy)ethyl)-1,5-dimethyl-1H-pyrazol-3-yl)-2,2-dimethylpropan-1-ol], in data set [1], the IC50 was 1.2 nM. Besides, the Papp B→A at 2.5 h, 2 μM in data set [2] amounted to 7.44 ×10⁻⁶ cm/s. Moreover, the “Caco-2 A-B” value in data set [3] turned out to be 1.345 ×10⁻⁶ cm/s.
Molecule `Cc1c(CCOc2c(-c3ccc4ncc(CN(C)C)n4c3)ccc(F)c2F)c(C(O)C(C)(C)C)nn1C` (single isomer, unassigned) [Example 16, 1-(4-(2-(6-(3-((dimethylamino)methyl)imidazo[1,2-a]pyridin-6-yl)-2,3-difluorophenoxy)ethyl)-1,5-dimethyl-1H-pyrazol-3-yl)-2,2-dimethylpropan-1-ol] registered a half-inhibitory concentration (IC50) in data set [1] of 0.2 nM. Also, in data set [3], the “Caco-2 A-B” value came to 1.395 ×10⁻⁶ cm/s and the “Caco-2 B-A” value turned out to be 9.06 ×10⁻⁶ cm/s.
Consider `CNCc1cnc2ccc(-c3ccc(F)cc3OCCc3c(C(O)C(C)(C)C)nn(C)c3C)cn12` (centres unmarked) [Example 8, 1-(4-(2-(5-fluoro-2-(3-((methylamino)methyl)imidazo[1,2-a]pyridin-6-yl)phenoxy)ethyl)-1,5-dimethyl-1H-pyrazol-3-yl)-2,2-dimethylpropan-1-ol], for which half-maximal inhibition in data set [1] (Homo sapiens, SU-DHL10, 72 h) (IC50) was put at 0.7 nM.
Same read-out and setting: for `Cc1c(CCOc2c(-c3ccc4ncc(CN)n4c3)ccc(F)c2F)c(C(O)C(C)(C)C)nn1C` (centres unmarked) [Example 17, 1-(4-(2-(6-(3-(aminomethyl)imidazo[1,2-a]pyridin-6-yl)-2,3-difluorophenoxy)ethyl)-1,5-dimethyl-1H-pyrazol-3-yl)-2,2-dimethylpropan-1-ol] the value was 1 nM.
Regarding `Cc1c(CCOc2cc(F)ccc2-c2ccc3ncc(CN(C)C)n3c2)c(C(C)(C)O)nn1C` [Example 19, 2-(4-(2-(2-(3-((dimethylamino)methyl)imidazo[1,2-a]pyridin-6-yl)-5-fluorophenoxy)ethyl)-1,5-dimethyl-1H-pyrazol-3-yl)propan-2-ol], the Papp B→A at 2.5 h, 2 μM in data set [2] amounted to 29.4 ×10⁻⁶ cm/s. The “Caco-2 A-B” value in data set [3] is 3.5 ×10⁻⁶ cm/s.
`Cc1c(CCOc2c(-c3ccc4ncc(CN)n4c3)ccc(F)c2F)c(C(C)(C)O)nn1C` [Example 20, 2-[4-(2-{6-[3-(aminomethyl)imidazo[1,2-a]pyridin-6-yl]-2,3-difluorophenoxy}ethyl)-1,5-dimethyl-1H-pyrazol-3-yl]propan-2-ol]: in data set [1] (Homo sapiens, SU-DHL10, 72 h), the IC50 was 12 nM.
Same read-out and setting: for `CCNCc1cnc2ccc(-c3ccc(F)cc3OCCc3c(C(C)(C)O)nn(C)c3C)cn12` [Example 22, 2-{4-[2-(2-{3-[(ethylamino)methyl]imidazo[1,2-a]pyridin-6-yl}-5-fluorophenoxy)ethyl]-1,5-dimethyl-1H-pyrazol-3-yl}propan-2-ol] the value was 9 nM.
`Cc1c(CCOc2cc(F)ccc2-c2ccc3ncc(CCN)n3c2)c(C(C)(C)O)nn1C` [Example 23, 2-(4-(2-(2-(3-(2-aminoethyl)imidazo[1,2-a]pyridin-6-yl)-5-fluorophenoxy)ethyl)-1,5-dimethyl-1H-pyrazol-3-yl)propan-2-ol] came in with a Papp B→A at 2.5 h, 2 μM in data set [2] of 9.7 ×10⁻⁶ cm/s. Also, in data set [3], the “Caco-2 A-B” value amounted to 0 ×10⁻⁶ cm/s.
In data set [1] (Homo sapiens, SU-DHL10, 72 h), `Cc1c(CCOc2cc(F)ccc2-c2ccc3ncc(CN(C)C)n3c2)c(C(O)C(C)C)nn1C` (centres unmarked) [Example 24, 1-(4-(2-(2-(3-((dimethylamino)methyl)imidazo[1,2-a]pyridin-6-yl)-5-fluorophenoxy)ethyl)-1,5-dimethyl-1H-pyrazol-3-yl)-2-methylpropan-1-ol] yielded an IC50 of 0.7 nM.
Same read-out and setting: under `CNCc1cnc2ccc(-c3ccc(F)c(F)c3OCCc3c(C(O)C(C)C)nn(C)c3C)cn12` (centres unmarked) [Example 25, 1-{4-[2-(2,3-difluoro-6-{3-[(methylamino)methyl]imidazo[1,2-a]pyridin-6-yl}phenoxy)ethyl]-1,5-dimethyl-1H-pyrazol-3-yl}-2-methylpropan-1-ol] stands 1 nM.

Values taken from patent publication US12599676B2, “Cytotoxic imidazo[1,2-A]pyridine compounds and their use in therapy” (MyricX Pharma Limited, priority 2022, dated 2026).
